Experimental data taken from patent US20230095428A1, “[6R]-MTHF IN 5-FU BASED CHEMOTHERAPY OF BRAF- OR KRAS-MUTATED COLORECTAL CANCER” (Isofol Medical AB, priority 2021, published 2023).

Key:
[1] = cited from earlier work; for pharmacokinetic comparison of leucovorin and levoleucovorin: in vivo
[2] = in vitro; cited from earlier work
[3] = tested on: solid colorectal cancer tumors (mCRC, incl. BRAF- or KRAS-mutated); assay: Clinical study ISO-CC-005 (Phase I/IIa), safety extension cohorts and follow-up study: tumour response by CT, ORR per RECIST 1.1; type: in vivo, human; conditions: 19 patients harbouring either mutated KRAS or BRAF; 16 weeks and beyond; 120 mg/m2 arfolitixorin
From the text: As used herein, the term ORR shall refer to the Objective Response Rate, i.e. the proportion of patients with a reduction in tumor burden of a predefined amount. […] (Note: the appearance of one or more new lesions is also considered progression). […] As used herein, the term best ORR shall refer to the best overall response rate as per RECIST guideline version 1.1 for the treatment period, where applicable. Arfolitixorin has been in development for a number of years and has been studied in several clinical studies. […] 2019. The completion of the study was announced in January 2020. In total, 105 patients were included in the study. Applicant completed the dose definition part of ISO-CC-005 in March 2018, which evaluated the safety and efficacy of arfolitixorin in patients with mCRC. Shortly after, applicant started two additional treatment groups in 2018 to generate more safety and efficacy data, i.e. the safety extension Cohort #18 (Treatment Arm #4) and Cohort #19 (Treatment Arm #6). The aim was to evaluate as many patients as possible from the additional treatment groups after a treatment period of 16 weeks+. On 30 Sep. […] The goal with the Dose-finding Part of the Main Study was to establish the Arfolitixorin dose level assessed as having the most favourable profile, i.e. the selected phase 2 dose (SP2D). […] Response was measured in short- and long-term assessments. […]

Compound: Nc1nc2c(c(=O)[nH]1)N(C=O)C(CNc1ccc(C(=O)N[C@@H](CCC(=O)O)C(=O)O)cc1)CN2 (some centres unmarked) [Leucovorin, 5-formyl tetrahydrofolic acid]
- pharmacokinetic comparison of leucovorin and levoleucovorin [1]: pharmacokinetically identical

Compound: Nc1nc(=O)c2c([nH]1)NC[C@H](CNc1ccc(C(=O)N[C@@H](CCC(=O)O)C(=O)O)cc1)N2C=O [1-LV]
- pharmacokinetic comparison of leucovorin and levoleucovorin [1]: pharmacokinetically identical
- conversion to the biologically available methyl-tetrahydrofolate form [2]: rapidly converted

Compound: Nc1nc2c(c(=O)[nH]1)N(C=O)[C@H](CNc1ccc(C(=O)N[C@@H](CCC(=O)O)C(=O)O)cc1)CN2 [d-LV]
- excretion ([1]; kidneys): slowly excreted by the kidneys

Compound: Nc1nc2c(c(=O)[nH]1)N1CN(c3ccc(C(=O)N[C@@H](CCC(=O)O)C(=O)O)cc3)C[C@H]1CN2 [[6R]-5,10-MTHF, [6R]-5,10-methylenetetrahydrofolate]
- best ORR [3]: > 50%
